One block for each compound: values may come before it.
Test system: NCI-H196 complex spheroid growth, percent test/control
Experiment: Anticancer human tumor NCI-H196 cell line growth inhibition [AhR];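 also: seven days of drug exposure starting three days after plating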;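 as to viability, T/C: 100% = DMSO vehicle control wells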
Details: for IC50: curve of first compound; for viability, T/C: stronger effect = lower value
In short: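 Complex tumor spheroids co-cultured with HUVEC and human MSC stroma; AhR antagonists tested in combination with standard-of-care and investigational agents. Top concentration at or near clinical Cmax (else 10 microM), half-log dilutions; growth expressed as percent test/control.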

[1] = second compound 0.1 µM, first compound 0.0316 µM
[2] = second compound 0.1 µM, first compound 0.1 µM
[3] = second compound 0.1 µM, first compound 0.316 µM
[4] = second compound 0.1 µM, first compound 1 µM
[5] = second compound 0.316 µM, first compound 0.0316 µM
[6] = second compound 0.316 µM, first compound 0.1 µM
[7] = second compound 0.316 µM, first compound 0.316 µM
[8] = second compound 0.316 µM, first compound 1 µM
[9] = second compound 1 µM, first compound 0.0316 µM
[10] = second compound 1 µM, first compound 0.1 µM
[11] = second compound 1 µM, first compound 0.316 µM
[12] = second compound 1 µM, first compound 1 µM
[13] = second compound 3.16 µM, first compound 0.0316 µM
[14] = second compound 3.16 µM, first compound 0.1 µM
[15] = second compound 3.16 µM, first compound 0.316 µM
[16] = second compound 3.16 µM, first compound 1 µM
[17] = second compound 10 µM, first compound 0.0316 µM
[18] = second compound 10 µM, first compound 0.1 µM
[19] = second compound 10 µM, first compound 0.316 µM
[20] = second compound 10 µM, first compound 1 µM
[21] = second compound 0.1 µM, first compound 3.16 µM
[22] = second compound 0.1 µM, first compound 10 µM
[23] = second compound 0.316 µM, first compound 3.16 µM
[24] = second compound 0.316 µM, first compound 10 µM
[25] = second compound 1 µM, first compound 3.16 µM
[26] = second compound 1 µM, first compound 10 µM
[27] = second compound 3.16 µM, first compound 3.16 µM
[28] = second compound 3.16 µM, first compound 10 µM
[29] = second compound 10 µM, first compound 3.16 µM
[30] = second compound 10 µM, first compound 10 µM
[31] = second compound 0.1 µM, first compound 0.00949 µM
[32] = second compound 0.1 µM, first compound 0.03 µM
[33] = second compound 0.1 µM, first compound 0.0949 µM
[34] = second compound 0.1 µM, first compound 0.3 µM
[35] = second compound 0.316 µM, first compound 0.00949 µM
[36] = second compound 0.316 µM, first compound 0.03 µM
[37] = second compound 0.316 µM, first compound 0.0949 µM
[38] = second compound 0.316 µM, first compound 0.3 µM
[39] = second compound 1 µM, first compound 0.00949 µM
[40] = second compound 1 µM, first compound 0.03 µM
[41] = second compound 1 µM, first compound 0.0949 µM
[42] = second compound 1 µM, first compound 0.3 µM
[43] = second compound 3.16 µM, first compound 0.00949 µM
[44] = second compound 3.16 µM, first compound 0.03 µM
[45] = second compound 3.16 µM, first compound 0.0949 µM
[46] = second compound 3.16 µM, first compound 0.3 µM
[47] = second compound 10 µM, first compound 0.00949 µM
[48] = second compound 10 µM, first compound 0.03 µM
[49] = second compound 10 µM, first compound 0.0949 µM
[50] = second compound 10 µM, first compound 0.3 µM

IC50 (second compound 0.1 µM): > 1000 nM
IC50 (second compound 0.316 µM): > 1000 nM
IC50 (second compound 1 µM): > 1000 nM
IC50 (second compound 3.16 µM): > 1000 nM
IC50 (second compound 10 µM): > 1000 nM
Compound: CC1COCCN1c1cc(-c2ccnn2C)c2ccnc(-c3ccn[nH]3)c2n1 (stereo not given) + Cc1cncc(-c2nc(NCCc3c[nH]c4ccccc34)c3ncn(C(C)C)c3n2)c1
viability, T/C (second compound 0.1 µM, first compound 0.00316 µM): 105%
viability, T/C (second compound 0.1 µM, first compound 0.01 µM): 96.6%
viability, T/C [1]: 86.5%
viability, T/C [2]: 70%
viability, T/C [3]: 62.4%
viability, T/C [4]: 60.7%
viability, T/C (second compound 0.316 µM, first compound 0.00316 µM): 95.5%
viability, T/C (second compound 0.316 µM, first compound 0.01 µM): 94.1%
viability, T/C [5]: 86.7%
viability, T/C [6]: 71.2%
viability, T/C [7]: 64.5%
viability, T/C [8]: 52.7%
viability, T/C (second compound 1 µM, first compound 0.00316 µM): 103%
viability, T/C (second compound 1 µM, first compound 0.01 µM): 97.7%
viability, T/C [9]: 96.4%
viability, T/C [10]: 79.4%
viability, T/C [11]: 70.9%
viability, T/C [12]: 57.9%
viability, T/C (second compound 3.16 µM, first compound 0.00316 µM): 106%
viability, T/C (second compound 3.16 µM, first compound 0.01 µM): 123%
viability, T/C [13]: 101%
viability, T/C [14]: 88.8%
viability, T/C [15]: 77.6%
viability, T/C [16]: 58.2%
viability, T/C (second compound 10 µM, first compound 0.00316 µM): 68.1%
viability, T/C (second compound 10 µM, first compound 0.01 µM): 80.7%
viability, T/C [17]: 75.7%
viability, T/C [18]: 66%
viability, T/C [19]: 80%
viability, T/C [20]: 71.8%

IC50 (second compound 0.1 µM): > 10000 nM
IC50 (second compound 0.316 µM): > 10000 nM
IC50 (second compound 1 µM): > 10000 nM
IC50 (second compound 3.16 µM): > 10000 nM
IC50 (second compound 10 µM): > 10000 nM
Compound: CC1COCCN1c1cc(C2(S(C)(=N)=O)CC2)nc(-c2ccnc3[nH]ccc23)n1 (stereo not given) + Cc1cncc(-c2nc(NCCc3c[nH]c4ccccc34)c3ncn(C(C)C)c3n2)c1
viability, T/C [1]: 104%
viability, T/C [2]: 103%
viability, T/C [3]: 91%
viability, T/C [4]: 90.1%
viability, T/C [21]: 88.9%
viability, T/C [22]: 74.5%
viability, T/C [5]: 100%
viability, T/C [6]: 101%
viability, T/C [7]: 101%
viability, T/C [8]: 90.3%
viability, T/C [23]: 85.3%
viability, T/C [24]: 64.5%
viability, T/C [9]: 98.5%
viability, T/C [10]: 96%
viability, T/C [11]: 99.8%
viability, T/C [12]: 96.9%
viability, T/C [25]: 86.9%
viability, T/C [26]: 73.1%
viability, T/C [13]: 108%
viability, T/C [14]: 103%
viability, T/C [15]: 104%
viability, T/C [16]: 96%
viability, T/C [27]: 98.8%
viability, T/C [28]: 71.9%
viability, T/C [17]: 77.3%
viability, T/C [18]: 96.6%
viability, T/C [19]: 87.6%
viability, T/C [20]: 83.7%
viability, T/C [29]: 79.3%
viability, T/C [30]: 76.4%

IC50 (second compound 0.1 µM): > 10000 nM
IC50 (second compound 0.316 µM): > 10000 nM
IC50 (second compound 1 µM): > 10000 nM
IC50 (second compound 3.16 µM): > 10000 nM
IC50 (second compound 10 µM): > 10000 nM
Compound: COc1ccc([C@@H](O)c2cc(-c3ncnc4cc(N5CCOCC5)ccc34)c(F)cc2Cl)nn1 + Cc1cncc(-c2nc(NCCc3c[nH]c4ccccc34)c3ncn(C(C)C)c3n2)c1
viability, T/C [1]: 102%
viability, T/C [2]: 101%
viability, T/C [3]: 97%
viability, T/C [4]: 91.4%
viability, T/C [21]: 78.7%
viability, T/C [22]: 84.7%
viability, T/C [5]: 95.3%
viability, T/C [6]: 99.6%
viability, T/C [7]: 101%
viability, T/C [8]: 97.7%
viability, T/C [23]: 92.6%
viability, T/C [24]: 80.7%
viability, T/C [9]: 104%
viability, T/C [10]: 111%
viability, T/C [11]: 97.6%
viability, T/C [12]: 87.3%
viability, T/C [25]: 95.5%
viability, T/C [26]: 84%
viability, T/C [13]: 105%
viability, T/C [14]: 108%
viability, T/C [15]: 106%
viability, T/C [16]: 94.2%
viability, T/C [27]: 94%
viability, T/C [28]: 94.2%
viability, T/C [17]: 69.8%
viability, T/C [18]: 90.4%
viability, T/C [19]: 92.2%
viability, T/C [20]: 77.7%
viability, T/C [29]: 77.8%
viability, T/C [30]: 71%

IC50 (second compound 0.1 µM): > 300 nM
IC50 (second compound 0.316 µM): > 300 nM
IC50 (second compound 1 µM): > 300 nM
IC50 (second compound 3.16 µM): > 300 nM
IC50 (second compound 10 µM): > 300 nM
Compound: Nc1ncn(C2CC(O)C(CO)S2)c(=O)n1 (stereo not given) + Cc1cncc(-c2nc(NCCc3c[nH]c4ccccc34)c3ncn(C(C)C)c3n2)c1
viability, T/C (second compound 0.1 µM, first compound 0.000949 µM): 109%
viability, T/C (second compound 0.1 µM, first compound 0.003 µM): 112%
viability, T/C [31]: 109%
viability, T/C [32]: 111%
viability, T/C [33]: 118%
viability, T/C [34]: 116%
viability, T/C (second compound 0.316 µM, first compound 0.000949 µM): 101%
viability, T/C (second compound 0.316 µM, first compound 0.003 µM): 110%
viability, T/C [35]: 113%
viability, T/C [36]: 112%
viability, T/C [37]: 115%
viability, T/C [38]: 111%
viability, T/C (second compound 1 µM, first compound 0.000949 µM): 107%
viability, T/C (second compound 1 µM, first compound 0.003 µM): 110%
viability, T/C [39]: 108%
viability, T/C [40]: 116%
viability, T/C [41]: 121%
viability, T/C [42]: 123%
viability, T/C (second compound 3.16 µM, first compound 0.000949 µM): 118%
viability, T/C (second compound 3.16 µM, first compound 0.003 µM): 125%
viability, T/C [43]: 115%
viability, T/C [44]: 114%
viability, T/C [45]: 116%
viability, T/C [46]: 117%
viability, T/C (second compound 10 µM, first compound 0.000949 µM): 92.3%
viability, T/C (second compound 10 µM, first compound 0.003 µM): 92.9%
viability, T/C [47]: 101%
viability, T/C [48]: 101%
viability, T/C [49]: 93.8%
viability, T/C [50]: 106%

IC50 (second compound 0.1 µM): 44.3 nM
IC50 (second compound 0.316 µM): 34 nM
IC50 (second compound 1 µM): 42 nM
IC50 (second compound 3.16 µM): 40.2 nM
IC50 (second compound 10 µM): 38.7 nM
Compound: O=C(C=Cn1cnc(-c2cc(C(F)(F)F)cc(C(F)(F)F)c2)n1)NNc1cnccn1 + Cc1cncc(-c2nc(NCCc3c[nH]c4ccccc34)c3ncn(C(C)C)c3n2)c1
viability, T/C [31]: 75.3%
viability, T/C [32]: 65%
viability, T/C [33]: 20.6%
viability, T/C [34]: 8.92%
viability, T/C (second compound 0.1 µM, first compound 0.949 µM): 8.7%
viability, T/C (second compound 0.1 µM, first compound 3 µM): 5.72%
viability, T/C [35]: 73.5%
viability, T/C [36]: 52.7%
viability, T/C [37]: 25.1%
viability, T/C [38]: 9.13%
viability, T/C (second compound 0.316 µM, first compound 0.949 µM): 9.31%
viability, T/C (second compound 0.316 µM, first compound 3 µM): 8.45%
viability, T/C [39]: 71%
viability, T/C [40]: 59.2%
viability, T/C [41]: 27.9%
viability, T/C [42]: 13%
viability, T/C (second compound 1 µM, first compound 0.949 µM): 8.4%
viability, T/C (second compound 1 µM, first compound 3 µM): 7.77%
viability, T/C [43]: 80%
viability, T/C [44]: 59.4%
viability, T/C [45]: 22.4%
viability, T/C [46]: 10.5%
viability, T/C (second compound 3.16 µM, first compound 0.949 µM): 8.06%
viability, T/C (second compound 3.16 µM, first compound 3 µM): 8.49%
viability, T/C [47]: 65.2%
viability, T/C [48]: 62.8%
viability, T/C [49]: 4.24%
viability, T/C [50]: 2.39%
viability, T/C (second compound 10 µM, first compound 0.949 µM): 8.19%
viability, T/C (second compound 10 µM, first compound 3 µM): 5.29%

— PubChem BioAssay AID1919016 (Molecular Pharmacology Branch, DTP, NCI, 2023)
